# Experimental data reported in US20120309705A1, “NOVEL 3'-DEOXY-3'-METHYLIDENE-BETA-L-NUCLEOSIDES” (priority 2009, published 2012).
# Legend:
# [1] = Cytotoxicity in MT-4 cells (MTS); assay type: cell-based; details: human
# Method: MT-4 cells was added to 96-well microtiter plates in a volume of 50 μl (1×10^5 cells/mL). The cell medium contains the test compounds with the concentrations ranging 0.01 μM-31 μM. The cells were incubated at 37° C. with 5% CO2. At assay termination (6 days), 20-25 μL of MTS reagent is added per well and the microtiter plates are then incubated for 4-6 hrs at 37° C. with 5% CO2. The plate was read spectrophotometrically to assess cell viability. The cytotoxicity was calculated based on the cell viability in comparison with the control.
# [2] = Cytotoxicity in HepG2 cells (MTT); assay type: cell-based; details: human
# Method: HepG2 cells were seeded on 96-well plates at a density of 1×10^4 cells/well in 100 μl DMEM supplemented with 10% FBS, 100 U/ml penicillin/streptomycin and 2 mM L-glutamine. After 20 hours of incubation at 37° C. with 5% CO2, the medium was removed and replaced with fresh medium containing test compounds with the concentrations ranging 4.7-300 μM. The cells were incubated for 24 hours at 37° C. with 5% CO2. The medium was removed and replaced with 100 μl/well MTT (Sigma) in HBSS (0.5 mg/ml). After the incubation for 2 hours on gentle shake at 37° C., 100 μl/well of MTT lysis buffer was added to the wells and plates were covered and left over night to dissolve formazan crystals. Absorbance was measured at 570-630 nm in ELISA reader. The cytotoxicity was calculated based on the cell viability in comparison with the control.
# [3] = system: HIV-1IIIB; assay: Anti-HIV activity in MT-4 cells (cytopathic effect reduction); assay type: cell-based; details: Human immunodeficiency virus 1, MT4, 144 h, 6 days post-infection
# Method: MT-4 cells were used for analyzing compounds of the invention for their HIV inhibitory activities. On the day preceding the assay, the cells were split 1:2 to assure they were in an exponential growth phase at the time of infection. Total cell number and percent viability determinations were performed using a hemacytometer and trypan blue exclusion. Cell viability must be greater than 95% for the cells to be utilized in the assay. The cells were re-suspended at 1×10^5 cells/mL in tissue culture medium and added to control or drug-containing 96-well microtiter plates in a volume of 50 μL. The viruses used for this assay were HIV-1IIIB. For each assay, a pre-titered aliquot of virus was removed from the freezer (−80° C.) and allowed to thaw slowly to room temperature in a biological safety cabinet. The virus was re-suspended and diluted into tissue culture medium such that the amount of virus added to each well in a volume of 50 μL was the amount determined to give between 85 to 95% cell killing at 6 days post-infection. The multiplicity of infection of these assays was approximately 0.01 and the volume added to the well of the microtiter plates was 50 μL. At assay termination (6 days post-infection), 20-25 μL of MTS reagent 3-(4,5-dimethylthiazol-2-yl)-5-(3-carboxymethoxyphenyl)-2-(4-sulfophenyl)-2H-tetrazolium (MTS; CellTiter 96 Reagent, Promega) was added per well and the microtiter plates were incubated for 4-6 hrs at 37° C., 5% CO2. Adhesive plate sealers were used in place of the lids, the sealed plate is inverted several times to mix the soluble formazan product. The plate was read spectrophotometrically at 490/650 nm with plate reader. Anti-HIV activity was calculated based on the Cytopathic Effect Reduction (%).
# [4] = system: HBV; assay: Anti-HBV activity in HepG2.2.15 cells (HBV DNA, TaqMan PCR); assay type: cell-based; details: Hepatitis B virus, 144 h, 6 days, HBV DNA in supernatant, read-out: Anti-HBV activity IC50 (HepG 2215)
# Method: Human hepatoma cells with HBV (HepG2.2.15 cells) were used for the analyzing compounds of the invention for their HBV inhibitory activities. HepG2.2.15 cells were plated in 96-well microtiter plates. Only the interior wells were utilized to reduce “edge effects” observed during cell culture; the exterior wells were filled with complete medium to help minimize sample evaporation. After 16-24 hours the confluent monolayer of HepG2.2.15 cells were washed and the medium was replaced with complete medium containing various concentrations of a test compound in triplicate (compounds tested at 6 concentrations). Lamivudine was used as the positive control, while media alone was added to cells as a negative control. Three days later the culture medium was replaced with fresh medium containing the appropriately diluted drug. Six days following the initial administration of the test compound, the cell culture supernatant was collected, treated with pronase and then used in a real-time quantitative TaqMan PCR assay. The PCR-amplified HBV DNA was detected in real-time by monitoring increases in fluorescence signals that result from the exonucleolytic degradation of a quenched fluorescent probe molecule that hybridized to the amplified HBV DNA. For each PCR amplification, a standard curve was simultaneously generated using dilutions of purified HBV DNA. Anti-HBV activity was calculated from the reduction in HBV DNA levels. CellTiter-96 kit (Promega) is employed to measure cell viability in the same assay to confirm that the inhibition was not due to cytotoxicity in HepG 2 cells.
# [5] = target: rtN236T in HBV polymerase (Hepatitis B virus genotype D subtype ayw, UniProt P03156, N571T); details: cited from earlier work
# [6] = target: mutation rtA181V (Hepatitis B virus genotype D subtype ayw, UniProt P03156, A516V); details: cited from earlier work
# [7] = system: mutants resistant to lamivudine; details: cited from earlier work
# Chain of rtN236T in HBV polymerase (P03156 whole entry N571T): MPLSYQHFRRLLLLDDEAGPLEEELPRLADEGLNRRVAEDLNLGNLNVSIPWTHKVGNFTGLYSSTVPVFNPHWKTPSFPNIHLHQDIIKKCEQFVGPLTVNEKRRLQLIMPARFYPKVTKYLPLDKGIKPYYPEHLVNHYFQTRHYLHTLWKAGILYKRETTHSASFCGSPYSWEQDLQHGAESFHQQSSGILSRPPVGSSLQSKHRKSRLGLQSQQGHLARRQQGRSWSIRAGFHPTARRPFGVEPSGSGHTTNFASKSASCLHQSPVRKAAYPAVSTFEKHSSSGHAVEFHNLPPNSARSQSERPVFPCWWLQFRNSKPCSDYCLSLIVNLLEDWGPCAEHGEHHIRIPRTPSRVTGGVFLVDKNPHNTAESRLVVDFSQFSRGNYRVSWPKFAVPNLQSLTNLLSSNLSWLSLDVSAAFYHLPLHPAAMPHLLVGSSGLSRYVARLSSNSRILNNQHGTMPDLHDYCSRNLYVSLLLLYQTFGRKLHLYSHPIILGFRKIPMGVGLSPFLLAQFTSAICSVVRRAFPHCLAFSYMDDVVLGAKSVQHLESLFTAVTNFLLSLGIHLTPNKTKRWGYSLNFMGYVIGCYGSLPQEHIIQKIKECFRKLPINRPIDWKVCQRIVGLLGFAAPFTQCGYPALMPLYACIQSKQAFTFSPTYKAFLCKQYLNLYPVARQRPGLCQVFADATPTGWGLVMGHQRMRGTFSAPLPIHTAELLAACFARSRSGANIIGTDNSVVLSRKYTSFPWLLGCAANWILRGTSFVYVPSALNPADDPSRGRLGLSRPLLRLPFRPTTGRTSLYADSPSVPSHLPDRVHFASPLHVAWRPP
# Chain of mutation rtA181V (P03156 whole entry A516V): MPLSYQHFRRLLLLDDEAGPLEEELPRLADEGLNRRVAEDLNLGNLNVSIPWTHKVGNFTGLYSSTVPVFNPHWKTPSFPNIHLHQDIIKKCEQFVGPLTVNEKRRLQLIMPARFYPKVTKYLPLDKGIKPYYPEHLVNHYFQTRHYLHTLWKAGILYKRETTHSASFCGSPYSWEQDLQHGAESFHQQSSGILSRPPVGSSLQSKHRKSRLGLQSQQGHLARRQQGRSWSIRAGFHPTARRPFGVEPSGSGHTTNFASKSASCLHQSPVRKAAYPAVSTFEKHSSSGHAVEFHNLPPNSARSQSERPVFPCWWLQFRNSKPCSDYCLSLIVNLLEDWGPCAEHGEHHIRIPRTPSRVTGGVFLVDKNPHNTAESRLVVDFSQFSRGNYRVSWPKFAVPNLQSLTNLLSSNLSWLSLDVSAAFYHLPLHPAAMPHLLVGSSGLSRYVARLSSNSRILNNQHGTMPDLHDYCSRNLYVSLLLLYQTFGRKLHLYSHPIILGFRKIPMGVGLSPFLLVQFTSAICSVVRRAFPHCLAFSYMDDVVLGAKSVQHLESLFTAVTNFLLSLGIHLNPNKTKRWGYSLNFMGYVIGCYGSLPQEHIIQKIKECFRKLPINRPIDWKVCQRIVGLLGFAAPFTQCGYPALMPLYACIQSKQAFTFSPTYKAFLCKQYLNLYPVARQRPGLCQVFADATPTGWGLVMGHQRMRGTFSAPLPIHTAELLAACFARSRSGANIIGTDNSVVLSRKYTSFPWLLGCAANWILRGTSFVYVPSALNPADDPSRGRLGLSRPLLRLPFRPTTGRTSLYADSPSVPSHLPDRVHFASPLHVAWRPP
SMILES,CC50 at 6 days [1] [µM],CC50 at 24 h [2] [µM],IC50 [3] [µM],IC50 [4] [µM],loss of susceptibility [5],activity loss [6],cross-resistance of lamivudine-resistant mutants [7]
"C=C1C[C@@H](n2ccc(=O)[nH]c2=O)O[C@H]1CO [Compound 8, 1-(2,3-dideoxyl-3-methylidene-β-L-pentofuranosyl)uracil]",> 32,> 32,> 32,> 32,,,
"C=C1C[C@@H](n2ccc(N)nc2=O)O[C@H]1CO [Compound 10, 1-(2,3-dideoxyl-3-methylidene-β-L-pentofuranosyl)cytosine]",> 32,> 300,1 to 32,< 1,,,
"C=C1[C@H](CO)O[C@H](n2ccc(N)nc2=O)[C@H]1O [Compound 17, 1-(3-deoxy-3-methylidene-β-L-pentoribofuranosyl)cytosine]",> 32,> 300,> 32,,,,
"C=C1C[C@@H](n2cc(C)c(=O)[nH]c2=O)O[C@H]1CO [Compound 26, 1-(2,3-dideoxy-3-methylidene-β-L-pentofuranosyl)thymine]",> 32,> 300,> 32,< 1,,,
"C=C1[C@H](CO)O[C@H](n2ccc(N)nc2=O)[C@@H]1O [Compound 28, 1-(3-deoxy-3-methylidene-β-L-arabinopentofuranosyl)cytosine]",> 32,> 300,> 32,,,,
"C=C1[C@H](CO)O[C@H](n2ccc(N)nc2=O)[C@H]1F [Compound 37, 1-[2-deoxy-2-(S)-fluoro-3-deoxy-3-methylidene-β-L-pentofuranosyl]cytosine]",> 32,> 300,> 32,,,,
"C=C1[C@H](CO)O[C@H](n2ccc(N)nc2=O)[C@@H]1F [Compound 47, 1-[2-deoxy-2-(R)-fluoro-3-deoxy-3-methylidene-β-L-pentofuranosyl]cytosine]",> 32,> 300,> 32,,,,
"C=C1[C@H](CO)O[C@H](n2ccc(N)nc2=O)[C@H]1C [Compound 57, 4-Amino-1-[(2S,3S,5R)-5-(hydroxymethyl)-3-methyl-4-methylenetetrahydrofuran-2-yl]pyrimidin-2(1H)-one]",,> 300,,,,,
"C=C1C[C@@H](n2cc(F)c(N)nc2=O)O[C@H]1CO [Compound 66, 1-(2,3-dideoxyl-3-methylidene-β-L-pentofuranosyl)-5-fluorocytosine]",,> 300,,< 1,,,
"C=C1C[C@@H](n2cnc3c(N)ncnc32)O[C@H]1CO [Compound 71, 9-(2,3-dideoxyl-3-methylidene-β-L-pentofuranosyl)adenine]",,> 300,,< 1,,,
"C=C1C[C@@H](n2cnc3c(=O)[nH]c(N)nc32)O[C@H]1CO [Compound 75, 9-(2,3-dideoxyl-3-methylidene-β-L-pentofuranosyl)guanine]",> 32,,> 32,,,,
Nc1ncnc2c1ncn2CCOCP(=O)(O)O [adefovir],,,,,about 10 fold,about 33 fold,
C=C1[C@H](CO)[C@@H](O)C[C@@H]1n1cnc2c(=O)[nH]c(N)nc21 [entecavir],,,,,,,cross-resistance
Cc1cn([C@@H]2C[C@@H](O)[C@H](CO)O2)c(=O)[nH]c1=O [telbivudine],,,,,,,cross-resistance
